Where two headings read alike, the source gives them in different places.
Assays:
Format in all cases: in vivo
[1] = test system: common (oilseed) sunflower (Helianthus annuus); assay: Test B pre-/postemergence plant response; details: Preemergence
How it was run: (§1)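 Seeds were sown and sprayed preemergence, while plants at 2 to 18 cm (1- to 4-leaf stage) got postemergence sprays. Compounds were formulated in a non-phytotoxic solvent mixture with surfactant. After 13 to 15 days in a greenhouse, injury was rated visually against untreated controls, 0 (no effect) to 100 (complete control).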

[2] = test system: common ragweed (Ambrosia elation); assay: Test B pre-/postemergence plant response; details: for pest or weed control at 31 g/ha / pest or weed control at 62 g/ha: Ambrosia, read-out: Plant response rating, Ragweed; for pest or weed control at 31 g/ha: 31 g ai/ha; for pest or weed control at 62 g/ha: 62 g ai/ha, 100 complete control
How it was run: as §1

[3] = test system: eastern black (E.B.) nightshade (Solanum ptycanthum); assay: Test B pre-/postemergence plant response; details: Preemergence
How it was run: as §1

[4] = test system: giant foxtail (Setaria faberii); assay: Test B pre-/postemergence plant response; details: for pest or weed control at 31 g/ha: 31 g ai/ha; for pest or weed control at 62 g/ha: 62 g ai/ha, 100 complete control
How it was run: as §1

[5] = test system: goosegrass (Eleusine indica); assay: Test B pre-/postemergence plant response; details: for pest or weed control at 31 g/ha / pest or weed control at 62 g/ha: Eleusine indica, read-out: Plant response rating, Goosegrass; for pest or weed control at 31 g/ha: 31 g ai/ha; for pest or weed control at 62 g/ha: 62 g ai/ha, 100 complete control
How it was run: as §1

[6] = test system: green foxtail (Setaria viridis); assay: Test B pre-/postemergence plant response; details: for pest or weed control at 31 g/ha: 31 g ai/ha; for pest or weed control at 62 g/ha: 62 g ai/ha, 100 complete control
How it was run: as §1

[7] = test system: johnsongrass (Sorghum halepense); assay: Test B pre-/postemergence plant response; details: for pest or weed control at 31 g/ha / pest or weed control at 62 g/ha: Sorghum halepense, read-out: Plant response rating, Johnsongrass; for pest or weed control at 31 g/ha: 31 g ai/ha; for pest or weed control at 62 g/ha: 62 g ai/ha, 100 complete control
How it was run: as §1

[8] = test system: large crabgrass (Digitaria sanguinalis); assay: Test B pre-/postemergence plant response; details: for pest or weed control at 31 g/ha: 31 g ai/ha; for pest or weed control at 62 g/ha: 62 g ai/ha, 100 complete control
How it was run: as §1

[9] = test system: pigweed (Amaranthus retroflexus); assay: Test B pre-/postemergence plant response; details: for pest or weed control at 31 g/ha / pest or weed control at 62 g/ha: Amaranthus retroflexus, read-out: Plant response rating, Pigweed; for pest or weed control at 31 g/ha: 31 g ai/ha; for pest or weed control at 62 g/ha: 62 g ai/ha, 100 complete control
How it was run: as §1

[10] = test system: velvetleaf (Abutilon theophrasti); assay: Test B pre-/postemergence plant response; details: for pest or weed control at 31 g/ha / pest or weed control at 62 g/ha: Abutilon theophrasti, read-out: Plant response rating, Velvetleaf; for pest or weed control at 31 g/ha: 31 g ai/ha; for pest or weed control at 62 g/ha: 62 g ai/ha, 100 complete control
How it was run: as §1

wild oat (Avena fatua) = assay: Test B pre-/postemergence plant response; details: for pest or weed control at 31 g/ha / pest or weed control at 62 g/ha: Avena fatua, read-out: Plant response rating, Oat, Wild; for pest or weed control at 31 g/ha: 31 g ai/ha; for pest or weed control at 62 g/ha: 62 g ai/ha, 100 complete control
How it was run: as §1

[11] = test system: woolly cupgrass (Eriochloa villosa); assay: Test B pre-/postemergence plant response; details: for pest or weed control at 31 g/ha: 31 g ai/ha; for pest or weed control at 62 g/ha: 62 g ai/ha, 100 complete control
How it was run: as §1

[12] = test system: ducksalad (Heteranthera limosa); assay: Test B flooded paddy test plant response; details: Heteranthera limosa, read-out: Plant response rating, Ducksalad
How it was run: (§2)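 Compounds were added directly to paddy water over 2-leaf-stage plants in pots flooded 3 cm above soil, water depth maintained. Visual injury scored against controls after 13 to 15 days in greenhouse, 0 (none) to 100 (complete control); dash indicates no result.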

rice (Oryza sativa) = assay: Test B flooded paddy test plant response; details: Oryza sativa, read-out: Plant response rating, Rice
How it was run: as §2

[13] = 8 g ai/ha, scale 0 to 100 (0 no effect, 100 complete control)
[14] = 8 g ai/ha, postemergence, 0-100 scale
[15] = 16 g ai/ha, postemergence, 0-100 scale
[16] = post-emergence, Postemergence, scale 0 to 100
[17] = post-emergence, Postemergence, scale 0 to 100, 0 no effect
[18] = pre-emergence, Preemergence, scale 0 to 100 (0 no effect, 100 complete control)
[19] = pre-emergence, Preemergence, 0 to 100 scale, 0 no effect
[20] = Preemergence, 8 g ai/ha, scale 0 to 100 (0 no effect, 100 complete control)
[21] = Preemergence, 16 g ai/ha, scale 0 to 100
[22] = Flood (flooded paddy test), 62 g ai/ha, scale 0 to 100, 0 no effect, 100 complete control
[23] = Flood (flooded paddy test), 125 g ai/ha, scale 0 to 100, 0 no effect, 100 complete control
[24] = Flood (flooded paddy test), 250 g ai/ha, scale 0 to 100, 0 no effect, 100 complete control
[25] = Flood, 31 g ai/ha, scale 0 to 100

Cc1cc(-c2ccc(Br)cc2)nn1-c1c(OC(=O)C2CC2)cnn(C(=O)C2CC2)c1=O [Compound 80, 5-[3-(4-bromophenyl)-5-methyl-1H-pyrazol-1-yl]-1-(cyclopropylcarbonyl)-1,6-dihydro-6-oxo-4-pyridazinyl cyclopropanecarboxylate]
pest or weed control at 31 g/ha ([1]; Helianthus annuus, pre-emergence, 31 g ai/ha, scale 0 to 100 (0 no effect, 100 complete control), read-out: Plant response rating, Sunflower): 0%
pest or weed control at 62 g/ha ([1]; Helianthus annuus, pre-emergence, 62 g ai/ha, 0 to 100 scale, 0 no effect, 100 complete control, read-out: Plant response rating, Sunflower): 0%
Sunflower plant response rating [1, 13]: 0
Sunflower plant response rating ([1]; 16 g ai/ha, scale 0 to 100): 0
Ragweed plant response rating [2, 14]: 0
Ragweed plant response rating [2, 15]: 0
pest or weed control at 31 g/ha [2, 16]: 0%
pest or weed control at 62 g/ha [2, 17]: 0%
pest or weed control at 31 g/ha [2, 18]: 0%
pest or weed control at 62 g/ha [2, 19]: 0%
Ragweed plant response rating [2, 20]: 0
Ragweed plant response rating [2, 21]: 0
Nightshade, E. B. plant response rating [3, 13]: 0
pest or weed control at 31 g/ha ([3]; Solanum, pre-emergence, 31 g ai/ha, scale 0 to 100 (0 no effect, 100 complete control), read-out: Plant response rating, Nightshade, E. B.): 0%
pest or weed control at 62 g/ha ([3]; Solanum, pre-emergence, 62 g ai/ha, 0 to 100 scale, 0 no effect, 100 complete control, read-out: Plant response rating, Nightshade, E. B.): 0%
Foxtail, Giant plant response rating [4, 14]: 95
Foxtail, Giant plant response rating [4, 20]: 0
Foxtail, Giant plant response rating [4, 21]: 100
pest or weed control at 16 g/ha ([4]; Setaria faberi, post-emergence, Postemergence, 16 g ai/ha, scale 0 to 100, read-out: Plant response rating, Foxtail, Giant): 100%
pest or weed control at 31 g/ha ([4]; Setaria faberi, post-emergence, Postemergence, scale 0 to 100, read-out: Plant response rating, Foxtail, Giant): 100%
pest or weed control at 62 g/ha ([4]; Setaria faberi, post-emergence, Postemergence, scale 0 to 100, 0 no effect, read-out: Plant response rating, Foxtail, Giant): 100%
pest or weed control at 31 g/ha ([4]; Setaria faberi, pre-emergence, Preemergence, scale 0 to 100 (0 no effect, 100 complete control), read-out: Plant response rating, Foxtail, Giant): 100%
pest or weed control at 62 g/ha ([4]; Setaria faberi, pre-emergence, Preemergence, 0 to 100 scale, 0 no effect, read-out: Plant response rating, Foxtail, Giant): 100%
Goosegrass plant response rating [5, 14]: 20
Goosegrass plant response rating [5, 15]: 75
pest or weed control at 31 g/ha [5, 16]: 85%
pest or weed control at 62 g/ha [5, 17]: 98%
pest or weed control at 31 g/ha [5, 18]: 100%
pest or weed control at 62 g/ha [5, 19]: 100%
Goosegrass plant response rating [5, 20]: 0
Goosegrass plant response rating [5, 21]: 20
Foxtail, Green plant response rating [6, 14]: 50
Foxtail, Green plant response rating [6, 20]: 0
Foxtail, Green plant response rating [6, 21]: 98
pest or weed control at 16 g/ha ([6]; Setaria viridis, post-emergence, Postemergence, 16 g ai/ha, scale 0 to 100, read-out: Plant response rating, Foxtail, Green): 60%
pest or weed control at 31 g/ha ([6]; Setaria viridis, post-emergence, Postemergence, scale 0 to 100, read-out: Plant response rating, Foxtail, Green): 100%
pest or weed control at 62 g/ha ([6]; Setaria viridis, post-emergence, Postemergence, scale 0 to 100, 0 no effect, read-out: Plant response rating, Foxtail, Green): 100%
pest or weed control at 31 g/ha ([6]; Setaria viridis, pre-emergence, Preemergence, scale 0 to 100 (0 no effect, 100 complete control), read-out: Plant response rating, Foxtail, Green): 100%
pest or weed control at 62 g/ha ([6]; Setaria viridis, pre-emergence, Preemergence, 0 to 100 scale, 0 no effect, read-out: Plant response rating, Foxtail, Green): 100%
Johnsongrass plant response rating [7, 14]: 75
Johnsongrass plant response rating [7, 15]: 90
Johnsongrass plant response rating [7, 20]: 60
Johnsongrass plant response rating [7, 21]: 65
pest or weed control at 31 g/ha [7, 16]: 95%
pest or weed control at 62 g/ha [7, 17]: 100%
pest or weed control at 31 g/ha [7, 18]: 80%
pest or weed control at 62 g/ha [7, 19]: 100%
Crabgrass, Large plant response rating [8, 14]: 98
pest or weed control at 16 g/ha ([8]; Digitaria sanguinalis, post-emergence, Postemergence, 16 g ai/ha, scale 0 to 100, read-out: Plant response rating, Crabgrass, Large): 100%
pest or weed control at 31 g/ha ([8]; Digitaria sanguinalis, post-emergence, Postemergence, scale 0 to 100, read-out: Plant response rating, Crabgrass, Large): 100%
pest or weed control at 62 g/ha ([8]; Digitaria sanguinalis, post-emergence, Postemergence, scale 0 to 100, 0 no effect, read-out: Plant response rating, Crabgrass, Large): 100%
pest or weed control at 31 g/ha ([8]; Digitaria sanguinalis, pre-emergence, Preemergence, scale 0 to 100 (0 no effect, 100 complete control), read-out: Plant response rating, Crabgrass, Large): 100%
pest or weed control at 62 g/ha ([8]; Digitaria sanguinalis, pre-emergence, Preemergence, 0 to 100 scale, 0 no effect, read-out: Plant response rating, Crabgrass, Large): 100%
Crabgrass, Large plant response rating [8, 20]: 0
Crabgrass, Large plant response rating [8, 21]: 98
Pigweed plant response rating [9, 14]: 0
Pigweed plant response rating [9, 15]: 0
pest or weed control at 31 g/ha [9, 16]: 0%
pest or weed control at 62 g/ha [9, 17]: 0%
pest or weed control at 31 g/ha [9, 18]: 0%
pest or weed control at 62 g/ha [9, 19]: 55%
Pigweed plant response rating [9, 20]: 0
Pigweed plant response rating [9, 21]: 0
Velvetleaf plant response rating [10, 14]: 0
Velvetleaf plant response rating [10, 15]: 0
pest or weed control at 31 g/ha [10, 16]: 0%
pest or weed control at 62 g/ha [10, 17]: 0%
pest or weed control at 31 g/ha [10, 18]: 0%
pest or weed control at 62 g/ha [10, 19]: 0%
Velvetleaf plant response rating [10, 20]: 0
Velvetleaf plant response rating [10, 21]: 0
Oat, Wild plant response rating (wild oat (Avena fatua); [14]): 85
Oat, Wild plant response rating (wild oat (Avena fatua); [15]): 100
pest or weed control at 31 g/ha (wild oat (Avena fatua); [16]): 100%
pest or weed control at 62 g/ha (wild oat (Avena fatua); [17]): 100%
pest or weed control at 31 g/ha (wild oat (Avena fatua); [18]): 60%
pest or weed control at 62 g/ha (wild oat (Avena fatua); [19]): 70%
Oat, Wild plant response rating (wild oat (Avena fatua); [20]): 30
Oat, Wild plant response rating (wild oat (Avena fatua); [21]): 40
Cupgrass, Woolly plant response rating [11, 14]: 80
pest or weed control at 16 g/ha ([11]; Eriochloa villosa, post-emergence, Postemergence, 16 g ai/ha, scale 0 to 100, read-out: Plant response rating, Cupgrass, Woolly): 95%
pest or weed control at 31 g/ha ([11]; Eriochloa villosa, post-emergence, Postemergence, scale 0 to 100, read-out: Plant response rating, Cupgrass, Woolly): 100%
pest or weed control at 62 g/ha ([11]; Eriochloa villosa, post-emergence, Postemergence, scale 0 to 100, 0 no effect, read-out: Plant response rating, Cupgrass, Woolly): 100%
pest or weed control at 31 g/ha ([11]; Eriochloa villosa, pre-emergence, Preemergence, scale 0 to 100 (0 no effect, 100 complete control), read-out: Plant response rating, Cupgrass, Woolly): 98%
pest or weed control at 62 g/ha ([11]; Eriochloa villosa, pre-emergence, Preemergence, 0 to 100 scale, 0 no effect, read-out: Plant response rating, Cupgrass, Woolly): 100%
Cupgrass, Woolly plant response rating [11, 20]: 0
Cupgrass, Woolly plant response rating [11, 21]: 65
pest or weed control at 62 g/ha [12, 22]: 0%
pest or weed control at 125 g/ha [12, 23]: 0%
pest or weed control at 250 g/ha [12, 24]: 0%
pest or weed control at 31 g/ha [12, 25]: 0%
plant injury at 62 g/ha (rice (Oryza sativa); [22]): 0%
plant injury at 125 g/ha (rice (Oryza sativa); [23]): 0%
plant injury at 250 g/ha (rice (Oryza sativa); [24]): 0%
plant injury at 31 g/ha (rice (Oryza sativa); [25]): 0%
